{"source": "patent US10913773B2", "about": "“Bicyclic peptidyl inhibitor of tumor necrosis factor-alpha” (Ohio State Innovation Foundation, priority 2016, dated 2021)", "key": {"[1]": {"test_system": "murine TNFα-induced cell death in WEHI-13VAR fibroblasts", "assay": "MTT assay: protection of WEHI-13VAR fibroblasts against murine TNFα-induced cell death", "type": "cell-based", "conditions": "murine TNFα with 10 μM peptide; no inhibitor 10 ng/mL", "protocol": "WEHI-13VAR fibroblasts were purchased from American Type Culture Collection (ATCC). For maintenance, cells were grown in full medium as RPMI-1640 supplemented with 10% FBS and 1% Abs. For toxicity assay, cells were seeded in a 96-well plate at a density of 5×10^3 cells/well in 100 μL of RPMI-1640/1% Abs supplemented with 10% or 5% FBS and allowed to grow overnight. Varying concentrations of recombinant human TNFα (0-250 ng/mL) or commercial mouse TNFα were (0-100 pg/mL) were incubated with 10 μM peptide and actinomycin D (1 μg/mL) in 100 μL of corresponding growth medium for 1 h at 37° C. Next, the medium in the 96-well plate was removed and replaced with the above fresh mixture and the cells were incubated overnight. Next day, 10 μL of the 3-(4, 5-dimethylthiazolyl-2)-2, 5-diphenyltetrazolium bromide (MTT, final concentration 0.5 mg/ml) was added to each well and incubated at 37° C. for 3 h, following by the addition of 100 μL of the MTT solubilization solution. The plate was kept in the incubator overnight to let the formazan crystals to completely dissolve, and the absorbance at 570 nm was measured on a TECAN plate reader. The LD50 was obtained as plotting the viability as a function of the TNFα concentration.\nTNFα inhibitor C1-74-2 was tested for its inhibitory activity against murine TNFα, a necessary step before testing C1-74-2 in a mouse model of inflammatory bowel disease."}, "TNFα-TNFR1 interaction": {"target": "T1, TNFα-TNFR1 interaction (Homo sapiens, UniProt P01375)", "T1 construct": "made in house; host or cells: Escherichia coli (TNFα)", "assay": "ELISA inhibition of TNFα-TNFR1 interaction (immobilized biotinylated TNFα, TNFR1-HRP)", "type": "binding"}, "TNFα": {"target": "T2, TNFα (Homo sapiens, UniProt P01375)", "T2 construct": "ybbR tag (13 aa) (N); made in house; host or cells: Escherichia coli", "T2 sequence (P01375 77-233 limits assumed)": "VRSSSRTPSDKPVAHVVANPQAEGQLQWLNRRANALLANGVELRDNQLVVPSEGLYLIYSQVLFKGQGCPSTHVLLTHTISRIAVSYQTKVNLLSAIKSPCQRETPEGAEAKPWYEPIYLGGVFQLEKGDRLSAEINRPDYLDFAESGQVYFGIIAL", "assay": "FA-based competition with FITC-labeled C1 for binding to TNFα", "conditions": "2 μM TNFα, 100 nM C1-NNNK(FITC), 0-15 μM competitor", "protocol": "(§1) FIG. 6A is a graph showing the competition for binding to TNFα (2 μM) between C1-74-2 (0-15 μM) and C1-NNNK(FITC) (100 nM) as monitored by FA. FIG. 6B is a graph showing binding of infliximab-HRP conjugate to immobilized TNFα in the absence and presence of C1-74-2 (0, 2, or 6 μM).\n[formula] where Y is the measured anisotropy at a given TNFα concentration x; L is the bicyclic peptide concentration; Qb/Qf is the correction fact for dye-protein interaction; Amax is the maximum anisotropy when all the peptides are bound to TNFα, while Amin is the minimum anisotropy. Competition experiments were performed by incubating 100 nM Asn-Asn-Asn-Lys(FITC)-labeled anticachexin C1 (Table 1), 2 μM of TNFα, and varying concentrations of unlabeled competitor peptide (0-20 μM) in the above buffer for 2 h. The FA values were plotted against the competitor peptide concentration to determine the IC50 values."}, "[2]": {"test_system": "TNFα-induced activation of NF-κB", "assay": "NF-κB luciferase reporter assay in NF-κB reporter (Luc)-HEK293 cells", "type": "cell-based", "conditions": "6 μM peptide, 5 ng/mL TNFα", "protocol": "NF-κB reporter (Luc)-HEK293 cells 30 (BPS Bioscience, San Diego, Calif.) were seeded at a density of 5,000 cells per well in Greiner white 96-well cell culture microplates in 50 μL of growth medium (DMEM+10% FBS+1% P/S). Cells were incubated overnight at 37° C. in the presence of 5% CO2. TNFα (5 ng/mL) and different concentrations of compound C1-74-2 (0-6 μM) were incubated for 1 h in 5 μL of growth medium (DMEM+5% FBS+1% P/S) at 37° C. in the presence of 5% CO2. The growth medium in the plate was replaced with 50 μL of fresh medium (DMEM+5% FBS+1% P/S). The pre-incubated TNFα and peptide mixture (5 μL) was added into each well, with 5 μL of growth medium only added as the control. The cells were incubated at 37° C. with 5% CO2 for 2 h. Fifty μL of ONE-Step™ Luciferase Assay reagent (BPS Bioscience, San Diego, Calif.) was added into each well. The whole plate was incubated at room temperature for 5 min and the luminescence generated was measured on a Tecan M1000 Pro microplate reader.\nWEHI-13VAR cells were treated with TNFα in the presence of increasing concentrations of C1-74-2 (0-20 μM) and the cell lysates were probed with antibodies specific for phosphorylated JNK (p-JNK) as well as total JNK. […]"}, "[3]": {"target": "T3, TNFα (infliximab binding) (Homo sapiens, UniProt P01375)", "T3 construct": "ybbR tag (13 aa) (N); made in house; host or cells: Escherichia coli", "T3 sequence (P01375 77-233 limits assumed)": "as above", "assay": "Binding of infliximab-HRP conjugate to immobilized TNFα", "conditions": "0, 2 or 6 μM peptide", "protocol": "as §1\nThe four peptides were tested for inhibition of the TNFα-TNFR1 interaction by using the ELISA assay."}}, "data": [{"smiles": "CC(=O)[C@@H]1CCCN(C(=O)[C@@H](Cc2c[nH]cn2)NC(=O)C(N)C(C)C)C1", "note": "(stereo partly drawn) [Compound C1-74-2]", "values": [{"measurement": "LD50 value of TNFα", "setting": "[1]", "result": 31, "unit": "ng/mL"}, {"measurement": "IC50", "setting": "TNFα-TNFR1 interaction; inhibition of TNFα-TNFR1 interaction, unlabeled peptides", "result": "12 ± 2", "unit": "nM"}, {"measurement": "Improvement of IC50 over C1-74 (fold)", "setting": "TNFα-TNFR1 interaction; relative to C1-74", "result": "~6", "unit": "fold"}, {"measurement": "Competition with FITC-labeled C1 for binding to TNFα", "setting": "TNFα", "result": "competed with FITC-labeled C1 for binding to TNFα"}, {"measurement": "Reduction of TNFα-induced luciferase activity", "setting": "[2]", "result": "~50", "unit": "%"}, {"measurement": "Inhibition of infliximab binding to surface-immobilized TNFα", "setting": "[3]", "result": "inhibited the binding of anti-TNFα antibody infliximab to a surface-immobilized TNFα in a concentration-dependent manner"}]}]}
